Measurements: article PMC4794209, “Preformulation Studies on Piperlongumine” (PLoS ONE, 2016)
In brackets after ≈: the same amount, converted by molar mass. Read-outs that look alike come from different tables or passages of the source.

Columns and labels:
Format in all cases: physicochemical
[1] = n-octanol/water partitioning study; conditions: room temperature, read-out: Partition coefficient (log P)
Protocol: Piperlongumine crystals were placed in a small glass bottle containing equal volumes of n-octanol and water. The bottle was shaken for 24 hours, after which time, the bottle was allowed to equilibrate without mixing for an additional 24 hours to ensure full separation between the n-octanol and water layers. A sample from each layer was carefully withdrawn and analyzed by HPLC.

[2] = Solubility studies (excess drug, agitation at least 24 h, HPLC)
Protocol: Solubility of piperlongumine was determined in purified water and the following cosolvent and surfactant systems: 5, 15, 30% (v/v) acetonitrile; 5, 15, 30, 50, 100% (v/v) of polyethylene glycol 400 (PEG 400), ethanol, glycerin and propylene glycol; 3, 7, 10% (w/v) of Tween 80; 2.5, 5, 10% (w/v) of Cremophor Rh 40; and a solution composition of 10% ethanol: 40% PEG 400 (w/v). Additionally, the complexing agents, sulfobutyl ether β-cyclodextrin sodium salt and hydroxyl-propyl-β-cyclodextrin, were examined at concentrations of 5, 10, 20, 40% (w/v).
An excess quantity of raw drug crystals were placed in a known volume of each medium in closed, light protected glass vials and allowed to agitate for at least 24 hours at ambient temperature. Samples were visually inspected to ensure that solid drug was still in excess and then filtered through a 0.2 μm PTFE filter. The filtrate was assayed via the previously described HPLC method and the concentration of piperlongumine in solution was determined.

[3] = Photo-stability (UV sunlamps, 165 min); conditions: for Photo-degradation: UV exposure
Protocol: Photo-stability was examined by preparing four groups of samples, each containing a triplicate sample and one reference (protected from light). These groups covered high and low drug concentrations in the following compositions:
• 150 μg/ml of drug in 100% acetonitrile • 150 μg/ml of drug in 15:85 acetonitrile: water • 30 μg/ml of drug in 100% acetonitrile • 30 μg/ml of drug in 15:85 acetonitrile: water
Each sample was prepared in a transparent glass vial and closed without any entrapped air. A reference sample was utilized for each group by covering one of the vials with aluminum foil to protect it from the light exposure. All vials were exposed for 165 min using Sun 340 sunlamps yielding UV emission between 295 and 390 nm to include UVA and UVB wavelengths. Samples were placed in an area where the UV intensity was measured to be 1.57 mw/cm^2. After the exposure time, samples were analyzed using the HPLC method described previously.

`COc1cc(/C=C/C(=O)N2CCC=CC2=O)cc(OC)c1OC` [piperlongumine, 1-[(2E)-3-(3,4,5-trimethoxyphenyl)prop-2-enoyl]-1,2,5,6-tetrahydropyridin-2-one] gave a logP at 24 h [1] of 2.37 ± 0.12, a solubility ([2]; 10% (w/v) Cremophor Rh 40, aqueous with cosolvent or surfactant or cyclodextrin, thermodynamic from solid, 10% (w/v) Cremophore Rh 40, read-out: Solubility) of about 550 µg/mL (≈ 1.73 mM) and a solubility ([2]; 10% (w/v) Tween 80, aqueous with cosolvent or surfactant or cyclodextrin, thermodynamic from solid, 10% Tween 80, read-out: Solubility) of about 700 µg/mL (≈ 2.21 mM). The solubility ([2]; 10% ethanol: 40% PEG 400 (w/v), aqueous with cosolvent or surfactant or cyclodextrin, thermodynamic from solid, read-out: Solubility) was about 1700 µg/mL (≈ 5.36 mM), the solubility ([2]; 10% ethanol: 40% PEG 400 (w/v), read-out: Solubility) was 1000 µg/mL (≈ 3.15 mM) and the solubility ([2]; 20% (w/v) hydroxypropyl-β-cyclodextrin, aqueous with cosolvent or surfactant or cyclodextrin, thermodynamic from solid, read-out: Solubility) was about 1000 µg/mL (≈ 3.15 mM). The solubility ([2]; 20% (w/v) hydroxypropyl-β-cyclodextrin, read-out: Solubility) was 1000 µg/mL (≈ 3.15 mM), the solubility ([2]; 20% (w/v) sulfobutyl ether β-cyclodextrin, aqueous with cosolvent or surfactant or cyclodextrin, thermodynamic from solid, read-out: Solubility) was about 1000 µg/mL (≈ 3.15 mM) and the solubility ([2]; 30% (v/v) acetonitrile, aqueous with cosolvent or surfactant or cyclodextrin, thermodynamic from solid, 30% acetonitrile, read-out: Solubility) was 1600 µg/mL (≈ 5.04 mM). The “Fold improvement in solubility” value ([2]; 30% acetonitrile vs water) was 63 fold, the solubility ([2]; 50% (v/v) PEG 400, aqueous with cosolvent or surfactant or cyclodextrin, thermodynamic from solid, 50% PEG 400, read-out: Solubility) was about 1100 µg/mL (≈ 3.47 mM) and the solubility ([2]; 50% (v/v) ethanol, aqueous with cosolvent or surfactant or cyclodextrin, thermodynamic from solid, 50% ethanol, read-out: Solubility) was about 2300 µg/mL (≈ 7.25 mM). For the same compound, the solubility ([2]; 100% PEG 400, organic solvent or mixture, thermodynamic from solid, pure PEG 400, read-out: Solubility) was about 22000 µg/mL (≈ 69.3 mM), the solubility ([2]; 100% ethanol, organic solvent or mixture, thermodynamic from solid, pure ethanol, read-out: Solubility) was about 11000 µg/mL (≈ 34.7 mM) and the Concentrations afforded ([2]; cosolvents and cyclodextrins) was at least 1000 µg/mL. The solubility ([2]; purified water, ambient temperature, read-out: Solubility in water (intrinsic solubility)) was about 26 µg/mL (≈ 0.0819 mM), the solubility ([2]; thermodynamic from solid, purified water, ambient temperature, read-out: Solubility in water (intrinsic solubility)) was 26 ± 2.9 µg/mL (≈ 0.0819 mM) and the “Average % of drug remaining ± SD” value ([3]; 30 μg/ml, acetonitrile:water 15:85, UV 165 min) was 79.0 ± 0.1%. The “Average % of drug remaining ± SD” value ([3]; 30 μg/ml, acetonitrile:water 100:00, UV 165 min) was 39.5 ± 0.03%, the “Average % of drug remaining ± SD” value ([3]; 150 μg/ml, acetonitrile:water 15:85, UV 165 min) was 82.3 ± 0.6% and the “Average % of drug remaining ± SD” value ([3]; 150 μg/ml, acetonitrile:water 100:00, UV 165 min) was 44.5 ± 0.2%. For the same compound, the Photo-degradation ([3]; 15:85 acetonitrile: water) was “approximately 20%”, the “Concentration remaining of the initial concentration” value ([3]; light protected control samples, after exposure duration) was 100% and the Photo-degradation ([3]; pure acetonitrile) was 60%. The “Photo-degradation upon exposure to an ultraviolet light source” value ([3]; qualitative) was “marked photo-degradation”.
